In one experiment the target is T1, pancreatic lipase (Homo sapiens, UniProt P16233).
T1 sequence (P16233 17-465): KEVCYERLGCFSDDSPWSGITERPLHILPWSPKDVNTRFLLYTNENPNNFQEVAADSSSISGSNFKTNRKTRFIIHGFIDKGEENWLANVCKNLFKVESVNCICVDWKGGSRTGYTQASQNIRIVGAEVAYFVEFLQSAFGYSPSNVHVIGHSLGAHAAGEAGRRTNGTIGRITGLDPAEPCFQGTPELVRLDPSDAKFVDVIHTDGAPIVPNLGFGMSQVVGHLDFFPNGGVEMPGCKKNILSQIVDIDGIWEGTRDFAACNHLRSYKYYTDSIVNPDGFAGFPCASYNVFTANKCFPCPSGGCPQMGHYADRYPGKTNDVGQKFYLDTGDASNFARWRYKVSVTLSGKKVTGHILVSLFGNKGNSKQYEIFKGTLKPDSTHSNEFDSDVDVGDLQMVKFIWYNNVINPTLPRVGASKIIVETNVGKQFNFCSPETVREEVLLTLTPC
Particulars: cited from earlier work.

Another experiment has as its target T2, human PPARγ (Homo sapiens, UniProt P37231).
T2 sequence (P37231 1-505): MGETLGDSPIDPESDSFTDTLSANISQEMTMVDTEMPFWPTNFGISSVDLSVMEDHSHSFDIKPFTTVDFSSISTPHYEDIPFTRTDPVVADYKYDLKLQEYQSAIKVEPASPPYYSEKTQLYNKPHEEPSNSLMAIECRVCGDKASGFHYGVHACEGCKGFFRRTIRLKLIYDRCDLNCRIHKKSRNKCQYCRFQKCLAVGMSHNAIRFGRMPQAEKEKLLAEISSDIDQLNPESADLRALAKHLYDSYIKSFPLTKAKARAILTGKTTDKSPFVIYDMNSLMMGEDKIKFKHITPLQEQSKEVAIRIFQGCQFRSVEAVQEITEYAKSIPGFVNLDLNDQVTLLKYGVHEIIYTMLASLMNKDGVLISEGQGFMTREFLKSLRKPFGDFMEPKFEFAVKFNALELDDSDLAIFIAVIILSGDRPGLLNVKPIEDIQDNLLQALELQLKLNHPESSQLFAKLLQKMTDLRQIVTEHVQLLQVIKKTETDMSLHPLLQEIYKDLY
Conditions: cited from earlier work.

Another experiment deals with olive oil-loaded mice. Particulars: doses of 5-20 mg/kg; cited from earlier work.
For a further experiment, the system named is mice fed a high fat diet. Particulars: 20 mg/kg/day; after 14 days; cited from earlier work.
The next experiment concerns LDL. Kind of experiment: Cu^2+-induced LDL oxidation in vitro (conjugated dienes, absorbance at 234 nm). In kind it is biochemical. Further details: key to Lag phase / Oxidation rate / Maximum quantity of dienes: NC: Not calculated since the samples totally inhibits the LDL from oxidation. The protocol:
LDL was concentrated from the plasma of normolipidemic donors by density gradient ultracentrifugation. Prior to oxidation, LDL was diluted in a phosphate buffered saline (PBS) and dialyzed against PBS at 4° C. to remove EDTA. The protein content was determined and adjusted to obtain 0.125 mg of protein/mL. […] The amounts of conjugated dienes were measured by determining the increased absorbance at 234 nm at 10 min intervals for a course span of 720 min using a Tecan Ultra Spectrophotometer (Tecan, Austria). Results were expressed as the relative absorbance at 234 nm. The lag phase, oxidation rate, and the maximum quantity of conjugated dienes were calculated. Results are reported as the mean±SD of three trials for each test. Differential between groups was calculated using the Student's t-test (XLSTAT 2008, Addinsoft™, USA), and the statistical significance was set at P<0.05.

For `CC(C)c1cc2c(c(O)c1O)[C@@]13CCCC(C)(C)[C@@H]1C[C@@H]2OC3=O` [carnosol], the pancreatic lipase activity result on pancreatic lipase is “substantially inhibited”. Also, the “activation of human PPARγ” value at human PPARγ was “activators”.

Consider `CC(C)c1cc2c(c(O)c1O)[C@@]1(C(=O)O)CCCC(C)(C)[C@@H]1CC2` [carnosic acid], for which, at pancreatic lipase, the pancreatic lipase activity entry was “substantially inhibited”. Further, the triglyceride elevation entry in the experiment with olive oil-loaded mice is recorded as “significantly inhibited”. Besides, the “gain of body weight and accumulation of epididymal fat weight” value in the experiment on mice fed a high fat diet is on record as “reduced”. Also, at human PPARγ, the “activation of human PPARγ” value is reported as “activators”.

Turning to `Cc1c(C)c2c(c(C)c1O)CCC(C)(C(=O)O)O2` (stereo not shown) [Trolox], in the experiment on LDL (10 μM, mean ± SD, three trials), the Lag phase was 180 ± 5.2 min, the “Maximum quantity of dienes” value was 99.0 ± 1.2 nmol/mg of LDL and the Oxidation rate was 80.1 ± 4.1 min⁻¹. In addition, in the experiment on LDL (100 μM), the Lag phase entry is listed as “NC”, the “Maximum quantity of dienes” value was “NC”, the Oxidation rate result is “NC” and the “inhibition of LDL oxidation” value is recorded as “complete inhibition”.

Values taken from patent US9011936B2, “Extract of Rosmarinus officinalis L. leaves for pharmaceutical applications” (Naturex, S.A., priority 2009, dated 2015).
